Laboratory results as given in PubChem BioAssay AID2305 (GlaxoSmithKline (GSK), 2010).

tested on: P. falciparum 3D7 growth, pLDH absorbance; test: P. falciparum 3D7 growth inhibition, dose response, strain 3D7 (AID 2305)

SMILES	IC50 [nM]
Cc1ccc(Cn2c(N3CCC(C(=O)NCc4cccs4)CC3)nc3ccccc32)cc1	750
CCOC(=O)c1c[nH]c2c(sc3cc(OC)ccc32)c1=O	390
CC1(CCN2CCC(c3c[nH]c4cnccc34)CC2)CCCc2c(Br)cccc2C1=O (stereo not given)	200
Cc1[nH]c2ccccc2c1C(=O)C(C)Sc1nnc(-c2ccccc2F)o1 (stereo not given)	690
Cc1cc(C(=O)NC2CCN(Cc3ccccc3)CC2)ccc1-c1nc2ccc(C(F)(F)F)cc2[nH]1	890
CC(=O)Nc1ccc2[nH]cc(C3CCN(CC4CCN(C(=O)/C=C/c5ccc(Cl)c(Cl)c5)CC4)CC3)c2c1	720
N#Cc1ccc2c(c1)CN(CCC1CCC(NC(=O)c3cc4cc(OC(F)(F)F)ccc4[nH]3)CC1)CC2 (stereo not given)	780
COc1ccc(CNCc2ccc(-c3ccc(-c4nc5c(C)cccc5[nH]4)s3)cc2)cc1	180
Cc1cc(N[C@@H](CC(C)C)C(=O)NCCc2ccccc2)nc(NCCc2ccc(F)cc2)n1	770
Cc1cccc2[nH]c(-c3cc(-c4cccc(Cl)c4)cnc3N)nc12	120
COc1ccc(CC2(c3ccc(F)cc3)N=C(N)N(CCCc3ccc4c(c3)OCO4)C2=O)cc1 (stereo not given)	740
CC(O)C1CCCCN1C(=O)c1cccc(-c2ccc(-c3nc4ccc(C(F)(F)F)cc4[nH]3)cc2)c1 (stereo not given)	690
CCOc1ccc2nc(C)cc(NN=Cc3ccccc3[N+](=O)[O-])c2c1	30
CCc1c(C(=O)NC2CCC(N3CCC(c4ccccc4OC)CC3)CC2)[nH]c2ccc(Br)cc12 (stereo not given)	1120
S=C(NCCCCCN1CCC(c2c[nH]c3ccccc23)CC1)Nc1cccc(I)c1	840
COc1ccc(N(c2nc(-c3cc(Cl)ccc3Cl)cs2)C2CCNCC2)cc1	1090
CCNc1cc(C(=O)N[C@@H](Cc2ccccc2)[C@H](O)CNCCCc2ccc(OC)cc2)cc(N2CCCC2=O)c1	560
CCOC(=O)C(NC(=O)Cc1ccccc1)C(C)C (stereo not given)	290
COc1cc(NC2=NS(=O)(=O)c3cc(Cl)ccc3N2C)cc(OC)c1OC	420
Cc1ccc(NC(=O)NC2CCN(c3ccnc4cc(Cl)ccc34)C2)cc1 (stereo not given)	150
O=C(/C=C/c1ccc(Cl)c(Cl)c1)N1CCC(CN2CCC(Cc3nc4ccccc4[nH]3)CC2)CC1	250
O=C(Nc1cccc(-c2ccc(-c3nc4ccc(C(F)(F)F)cc4[nH]3)cc2)c1)c1ccncc1	340
CC(C)CNCc1ccc(-c2cccc(CN(CCCN3CCN(C)CC3)C(=O)/C=C/c3ccccc3)c2)cc1	870
Cc1cccc(Nc2nc(N[C@@H]3CCCNC3)nc3cc[nH]c(=O)c23)c1	680

SMILES	IC50 [nM]
COc1cc2nc(NCCc3ccccc3)nc(N(C)Cc3ccccc3)c2cc1OC	830
CC(=O)Nc1ccc(Nc2ncc([N+](=O)[O-])c(Nc3ccccc3C(N)=O)n2)cc1	370
O=C1NC(=O)C(c2ccc(Cl)cc2)=C1Nc1cccc(S(=O)(=O)C(F)(F)F)c1	740
Cc1cc(OCCCN2CCN(CCN3CCOCC3)CC2)ccc1NC(=O)COc1ccc(Cl)cc1C(=O)c1cc(Cl)cc(C#N)c1	700
CC(Cc1ccc(OC2CCCCC2)cc1)NCC(O)c1cccc(Cl)c1 (stereo not given)	140
CCN(CC)C(=NCCCCCCN=C(NC(N)=NCc1cccc(Cl)c1)N(CC)CC)NC(N)=NCc1cccc(Cl)c1	210
CC(=O)Nc1ccc2[nH]cc(C3CCN(CC4CCN(C(=O)/C=C/c5ccc(Cl)c(Cl)c5)CC4)CC3)c2n1	160
COc1ccc2nccc([C@@H](O)CN3CCC(NS(=O)(=O)c4cc5c(cc4Cl)SCC(=O)N5)CC3)c2c1	980
O=C(Nc1ccc(Cl)cc1Cl)N[C@H]1CCN(CCCCCNC(=O)[C@@H]2C[C@H]2c2ccc(Cl)c(Cl)c2)C1	990
CN(C)CCCOc1ccccc1CN1CC[C@H](NC(=O)c2ccc(Cl)c(Cl)c2)C1	1110
COc1ccc(CNC(=O)c2cnc3c(O)cccc3c2Nc2cccc(NC(=O)c3ccc(Cl)c([N+](=O)[O-])c3)c2)cc1	950
C=CCOC(=O)N1CCC(CNCc2ccc(-c3cccc(-c4nc5c(C)cccc5[nH]4)c3)cc2)C1 (stereo not given)	120
CC(C)CNCc1ccc(-c2cccc(CN(CCN(C)C)C(=O)CCC3CCCC3)c2)cc1	810
CCc1cc2c(cc1OCCN(C)C)N(C(=O)Nc1ccc(-c3ccncc3)c(Cl)c1)CC2	840
O=C(Nc1ccc2nc3n(c(=O)c2c1)CCCCC3)C(=O)N1CCC(Cc2ccccc2)CC1	760
Cc1ccc(CCNCC(O)c2cccc(C(F)(F)F)c2)cc1 (stereo not given)	870
COc1c(C2CCN(CCCCNC(=O)c3noc(-c4ccc(C#N)cc4)n3)CC2)ccc2c1CCCC2	780
COc1ccc2nccc(N3CCC(SCCNS(=O)(=O)c4ccc5c(c4)OCCO5)C3)c2n1 (stereo not given)	980
Nc1nc(N)c2cc(S(=O)(=O)c3ccc4ccccc4c3)ccc2n1	40
Cc1ccc(CCC(C)NCC(O)c2cccc(Cl)c2)cc1 (stereo not given)	800
Cc1cc(Nc2cccc(C(F)(F)F)c2)nc(NCc2ccccc2)n1	150
CNCCNCc1ccc(-c2ccc(-c3nc4ccc(C(F)(F)F)cc4[nH]3)cc2)cc1	310
OC(c1cc(C(F)(F)F)nc2c(F)cccc12)C1CCCCN1 (stereo not given)	780
O=C(NCCCCCN1CCC(c2c[nH]c3ccccc23)CC1)Nc1ccc(Br)cc1	920

SMILES	IC50 [nM]
COc1ccc(-c2c(C(F)(F)F)nn(C)c2NC(=O)Nc2ccc(F)cc2F)cc1	800
OC(CNc1ccnc(Nc2cccc(CCN3CCOCC3)c2)n1)c1ccccc1 (stereo not given)	590
Cc1cc(N(C)C2CCN(CC3CCCCC3)C2)nc(Nc2ccc(Cl)cc2)n1 (stereo not given)	680
CN1CCN(CCCN(Cc2cccc(-c3ccc(CNCc4ccc5c(c4)OCO5)cc3)c2)C(=O)CCC2CCCC2)CC1	1000
COc1cc(F)c2ncc(Cl)c(CCN3CCC(NCc4ccc5c(c4)NC(=O)CO5)CC3)c2c1	230
Cc1cc(N2CCC(C)CC2)nc2cc(O)ccc12	1180
CN1C[C@@H](c2ccccc2)c2cc(O)c(CN3CCCCC3)cc2C[C@H]1Cc1ccccc1	180
CNC(=O)c1cnc(Nc2ccc3[nH]c(=O)[nH]c3c2)nc1Nc1cccc(OC(C)C)c1	930
CN(C)CCNC(=O)c1ccc2c(c1)ncn2-c1cc(OCc2ccccc2C(F)(F)F)c(C(N)=O)s1 (tested in a mixture with another compound)	810
Cc1nc(N=C(N)N)nc2ccc(C(C)(C)C)cc12	750
Cc1ccc(/C=C/C(=O)N2CCC(CCN3CCC(c4c[nH]c5ccccc45)CC3)CC2)cc1C	930
Cc1sc(C)c(C(F)(F)F)c1CNCCCNc1cc(=O)c2ccccc2[nH]1	1100
O=C(NCC1CCC(C(=O)NCCc2ccc(Cl)c(Cl)c2)CC1)c1ccc(O)c(-c2ccc(Cl)c(Cl)c2)c1 (stereo not given)	890
Cc1c(C(C)(C)C)ccc2nc(N)nc(N)c12	10
CNCCNCc1cccc(-c2cccc(-c3nc4ccc(F)cc4[nH]3)c2)c1	670
CC(C)[C@H]1C(=O)N(S(C)(=O)=O)[C@H]2CCN(C(=O)c3ccc(CN4CCCCC4)c([N+](=O)[O-])c3)[C@H]12	620
Cc1cccc2[nH]c(-c3ccc(-c4cccc(CNCCN(C)C)c4)cc3)nc12	680
Cc1ccc2nc(/C=C/c3cccc4cc[nH]c34)[nH]c2c1	1180
CSc1nc2nc(C)c(Cc3cccc(C(F)(F)F)c3)c(C)n2n1	190
Cc1cc2c(/C=C/C(=O)NC3CCC(CCN4CCc5ccc(C#N)cc5CC4)CC3)cccc2[nH]1 (stereo not given)	840
COc1ccc2c(NN=Cc3ccc(N(C)C)cc3)ccnc2c1	660
CN1CCN(c2nc(NCCNc3ccc([N+](=O)[O-])cc3)c3ccccc3n2)CC1	1320
CCOc1ccccc1NC(=O)C(Sc1nc(C)cc(C)c1C#N)c1ccccc1 (stereo not given)	370
COc1cc(C)ccc1S(=O)(=O)N1CCCCC(c2ccc(C(F)(F)F)cc2)=N1	770

SMILES	IC50 [nM]
Cc1ccc(C(=O)Nc2ccc(-c3nc4ccccc4[nH]3)cc2)cc1S(=O)(=O)N1CCOCC1	1210
CNC(=O)c1ccc2[nH]cc(C3CCN(CC4CCC(NC(=O)/C=C/c5ccccc5Cl)CC4)CC3)c2c1 (stereo not given)	840
O=c1cc(NCCCNC2CCc3c(Cl)cc(Cl)cc32)[nH]c2ccccc12 (stereo not given)	930
COc1cccc(Cc2cnc3nc(N)nc(N)c3c2C)c1	170
Cc1cc(NN=Cc2ccccc2[N+](=O)[O-])c2cc(F)ccc2n1	660
COc1ccc2nccc([C@@H](O)CN3CCC(c4cc(-c5ccc(Cl)cc5)n[nH]4)CC3)c2n1	740
O=C(Nc1ccc(-c2nc3ccccc3[nH]2)cc1)c1ccc(N2CCCC2)c([N+](=O)[O-])c1	680
Clc1ccc(-c2cc3c(NCc4ccncc4)nccc3s2)cc1	850
CC1CCN(CC[C@H]2CCCN2S(=O)(=O)c2cccc(NC(=O)c3ccc(-c4ccccc4)cc3)c2)CC1	1260
Cc1cccc(-c2ccc3c(c2)CC(NCc2cccc(-n4ccnc4)c2)C3)c1 (stereo not given)	870
O=C(/C=C/c1ccccc1Cl)Nc1ccc(Br)c(OCCN2CCC(O)(c3ccccc3)CC2)c1	480
COc1ccc2c(c1C1CCN(CCCCNC(=O)c3ccc(NC(=O)c4ccc(Cl)cc4)cc3)CC1)CCCC2	340
COc1cc(F)c2ncc(Cl)c(CCN3CCC(NCc4ccc5c(c4)NC(=O)CS5)CC3)c2c1	310
O=C(Nc1ccc(-c2ccc(-c3nc4ccc(C(F)(F)F)cc4[nH]3)cc2)cc1)Nc1ccc(F)c(F)c1F	220
N#Cc1c(Cl)cccc1Oc1ccc(S(=O)(=O)N2CCC(CN3CCC(c4c[nH]c5ccccc45)CC3)CC2)cc1	750
COc1ccc(CN2CCCC(C(=O)c3ccc(C(F)(F)F)cc3)C2)c(O)c1 (stereo not given)	850
COc1nc2c(CCN3CC[C@@H](NCc4cc(C#N)c5c(c4)CCO5)[C@@H](O)C3)ccnc2cc1F	1030
O=C(/C=C/c1ccc(Cl)c(Cl)c1)N1CCC(CCN2CCC(c3nc4ccc(O)cc4[nH]3)CC2)CC1	340
COc1ccccc1CCNc1nc(C)cc(N[C@@H](Cc2ccccc2)C(=O)NCCOc2ccccc2)n1	1210
CN1CC=C(c2csc3ccc(NC(=O)Nc4ccc(-c5ccncc5)c(Cl)c4)cc23)CC1	680
Nc1nc(N)c(-c2ccccc2)c(=O)[nH]1	1000
O=C(NC1CCN(Cc2cccc(C(F)(F)F)c2)CC1)c1ccc(-c2cccc(C(F)(F)F)c2)s1	1010
O=C(NC1CCCCCC1)[C@@H]1CCCN1C(=O)c1ccc(O)c(-c2ccc(Cl)c(Cl)c2)c1	340
